Experimental data published in PMC4721142, “Randomized controlled studies on the efficacy of antiarthritic agents in inhibiting cartilage degeneration and pain associated with progression of osteoarthritis in the rat” (Arthritis Research & Therapy, 2016).
Where two headings read alike, the source gives them in different places.

What was measured:
[1] = system: MMP-13; experiment: MMP-13 ELISA on supernatants of TNF-α-treated chondrogenic pellets; assay type: cell-based, human
[2] = system: MIA rat model of OA; experiment: MIA trial 1 histopathology; assay type: in vivo; details: necropsy day 29, n = 3; for Histopathology, cartilage score: 0-5 scale
Procedure: Following functional testing in the first and second MIA trials, femurs were fixed in paraformaldehyde, processed, sectioned, stained with hematoxylin and eosin or Safranin O at Premier Laboratory (Longmont, CO, USA), and analyzed by a veterinary pathologist. For MIA trial 1, sections were evaluated for the percentage area of chondrocyte necrosis and/or proteolytic degeneration using a 5-point scale with 0 = none; 1 being <10 %; 2 = 10–30 %; 3 = 30–60 %; 4 = 60–90 %; and 5 being >90 %. Other characteristics of inflammation, proliferation, and integrity of the synovium, subchondral bone, and articular cartilage were scored as normal, minimal, mild, moderate, marked, or increased or decreased when severity was not graded. MIA trial 2 was measured similarly and then cross-checked according to the methods used for MIA trial 3 (see text below).
The histopathology for the first MIA trial was performed by Premier Laboratories (Dr. Michael Hawes, APS, Pathologist). Treatments were masked during the assessment. Chondrocyte necrosis and proteolytic degeneration of the femurs were scored on a 5 point scale with 0 = None; 1 = <10%; […]
proteoglycan content (safranin O staining), synovial membrane inflammation and proliferation, subchondral bone, and articular cartilage (as indicated in Supplementary methods). Characteristics within these categories were scored as normal, minimal, mild, moderate, marked, or +/- when severity was not graded. […]
Degenerative changes occur by 3-6 weeks post-surgery in the MMT/MCLT model and are of greatest severity on the outer 1/3 of the tibial cartilage. Less severe degenerative changes are observed in the middle and inner 1/3 of the tibial cartilage. Osteophytes progressively increase in size and are ultimately quite large (medial tibia). By 12 months nearly all rats show total cartilage loss. Due to the rapid progression of cartilage degeneration, protective effects of therapeutics are not always apparent in the outer 1/3 of the tibial cartilage, although zonal analysis may reveal effects of treatment in the middle and inner 1/3. Substantial subchondral and epiphyseal bone changes occur in the medial tibia subjacent to the areas of greatest lesion severity. […]
Scores were based on the […]
percentage of area affected within the zone.
Cartilage degeneration in the tibia was scored on a five point scale for each zone, collagen damage across the medial tibial plateau was measured by total width for each grade damage. Cartilage degeneration in the tibia was scored none to severe (numerical values 0-5) for each zone (area defined by micrometer) using the following criteria: […]

[3] = system: MIA rat model of OA; experiment: MIA trial 1 weight bearing (daily s.c. clonidine 0.1, fluocinolone 0.002, morphine 6 mg/kg); assay type: in vivo
Procedure: Weight bearing (WB; incapacitance) was measured five times per day, once per week, using a Linton incapacitance meter (Stoelting Co., Wood Dale, IL, USA). Rats were acclimated to the meter before study initiation, and, similarly, immediately before WB, the animals were placed in the meter and allowed to acclimate for 2–5 minutes. Each hind paw was placed on a separate force plate so that the force exerted by each side could be averaged over a 5-second interval, and the mean of three readings was taken for each data point. Right paw force was compared with that on the left side for each group to confirm that animals were displaying incapacitance and/or pain behavior. Differences in force (left minus right) and right paw force as a percentage of the total force exerted by both paws were determined and compared between groups.
Following isoflurane anesthesia, 50 μl (2 mg) of MIA was injected into the synovial space of the left knee. Animals were randomly assigned to groups, and pain behavior was assessed 7, 14, 21, and 28 days following MIA injection and intervention using WB with the Stoelting incapacitance meter (trial 1) or the dRS test (trials 2 and 3). […] Animals received MIA treatment and then saline control or therapeutic. […] Histopathology was performed at each time point and at study termination. All studies were conducted in accordance with the International Association for the Study of Pain Guidelines and were approved by the Algos Therapeutics, Inc. Institutional Animal Care and Use Committee (IACUC) before initiation. Those running the studies were blind to the treatments. See Additional file 1 for further details. […]
dosing were housed three per cage. Animals had free access to food and water and were maintained […]
The animal colony was maintained at approximately 21 °C. All experiments were conducted in accordance with the International Association for the Study of Pain Guidelines.

[4] = rat, in vivo
Procedure: Using the MMT/MCLT model, a number of the same agents were tested via systemic delivery and
using incapacitance /weight bearing as a measure of pain.

[5] = MIA trial 2 clinical observations; assay type: in vivo, rat; details: tacrolimus i.p. daily

SMILES	Effective range against MMP-13 [1]	Histopathology, bone [2]	Histopathology, cartilage score [2]	Weight bearing, hours after dosing with significant difference ([3]; day 14)	Weight bearing, hours after dosing with significant difference ([3]; day 21, BL baseline)	Concentration inhibiting MMP-13 ([1]; > = failed to inhibit up to highest concentration tested)	Clinical observation [4]	Clinical observation [5]
Clc1cccc(Cl)c1N=C1NCCN1 [Clonidine]	Not effective	Severe	4.7	1 h	1 h	–	–	–
CC1(C)O[C@@H]2C[C@H]3[C@@H]4C[C@H](F)C5=CC(=O)C=C[C@]5(C)[C@@]4(F)[C@@H](O)C[C@]3(C)[C@]2(C(=O)CO)O1 [Fluocinolone, Fluocinolone Acetonide]	–	Minimal	3.0	–	BL^b, 1	–	–	–
C=CC[C@@H]1/C=C(\C)C[C@H](C)C[C@H](OC)[C@H]2O[C@@](O)(C(=O)C(=O)N3CCCC[C@H]3C(=O)O[C@H](/C(C)=C/[C@@H]3CC[C@@H](O)[C@H](OC)C3)[C@H](C)[C@@H](O)CC1=O)[C@H](C)C[C@@H]2OC [Tacrolimus]	–	–	–	–	–	50 µM	blood in the stool	blood in the stool
